The molecules below were run against human PDE1B enzyme (Homo sapiens (Human), UniProt Q01064) (assay: IMAP TR-FRET PDE1B enzymatic assay). Settings: not given.
Assay type: biochemical
How it was run: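 Full-length GST-tagged human PDE1B (250 pg/well) in IMAP BSA buffer with 10 U/ml calmodulin and 2.5 mM CaCl2; compound pre-incubated 5 min at room temperature, then 200 nM (final) FAM-cAMP for 30 min. IMAP binding reagent/Tb added, 1 h; TR-FRET 520/490 ratio read. IC50 from sigmoidal dose-response fit.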
`Cc1oc2ncnc(NC3(C)CC3)c2c1C(=O)N1CCC(C#N)(c2ccccc2)CC1` [Example 274, 1-{6-Methyl-4-[(1-methylcyclopropyl)amino]furo[2,3-d]pyrimidine-5-carbonyl}-4-phenylpiperidine-4-carbonitrile] showed an IC50 of 10 to 100 nM.

Same assay, conditions: negative log of half-maximal molar inhibitory concentration; 200 nM FAM-cAMP; values given as bins
`Cc1oc2ncnc(NC3(C)CC3)c2c1C(=O)NC1(C(C)C)CC1` [Example 147, 6-Methyl-4-[(1-methylcyclopropyl)amino]-N-[1-(propan-2-yl)cyclopropyl]furo[2,3-d]pyrimidine-5-carboxamide] was tested, and the “PDE1b (pIC50)” value was >8.
In the case of `COc1ccc(CNC(=O)c2c(C)oc3ncnc(NC4(C)CC4)c23)cn1` [Example 54, N-[(6-Methoxypyridin-3-yl)methyl]-6-methyl-4-[(1-methylcyclopropyl)amino]furo[2,3-d]pyrimidine-5-carboxamide], the “PDE1b (pIC50)” value is reported as >8.
In the case of `Cc1oc2ncnc(NC3(C)CC3)c2c1C(=O)N1CCc2ccc(OCF)cc2C1C` (stereo not drawn) [Example 772, 5-[7-(Fluoromethoxy)-1-methyl-1,2,3,4-tetrahydroisoquinoline-2-carbonyl]-6-methyl-N-(1-methylcyclopropyl)furo[2,3-d]pyrimidin-4-amine], the “PDE1b (pIC50)” value is reported as >8.
`Cc1ncc(CNC(=O)c2c(C)oc3ncnc(NC4(C)CC4)c23)s1` [Example 743, 6-Methyl-N-[(2-methyl-1,3-thiazol-5-yl)methyl]-4-[(1-methylcyclopropyl)amino]furo[2,3-d]pyrimidine-5-carboxamide] was tested, and the “PDE1b (pIC50)” value was >8.
`Cc1oc2ncnc(NC3(C)CC3)c2c1C(=O)N1CCc2ccc(O)cc2C1C` (stereo not drawn) [Example 338, 1-Methyl-2-{6-methyl-4-[(1-methylcyclopropyl)amino]furo[2,3-d]pyrimidine-5-carbonyl}-1,2,3,4-tetrahydroisoquinolin-7-ol] was tested, and the “PDE1b (pIC50)” value was >8.
With `Cc1oc2ncnc(NC3(C)CC3)c2c1C(=O)N1CCC(c2cccc(C(F)(F)F)n2)C1` (stereo not drawn) [Example 801, 6-Methyl-N-(1-methylcyclopropyl)-5-f{3-[6-(trifluoromethyl)pyridin-2-yl]pyrrolidine-1-carbonyl}furo[2,3-d]pyrimidin-4-amine] the “PDE1b (pIC50)” value was >8.

Same assay, conditions: negative log of half-maximal molar inhibitory concentration; 200 nM FAM-cAMP; values given as bins; read-out: PDE1b (pIC50) (converted)
`Cc1csc(CN(C)C(=O)c2c(C)oc3ncnc(NC4(C)CC4)c23)n1` [Example 700, N,6-Dimethyl-N-[(4-methyl-1,3-thiazol-2-yl)methyl]-4-[(1-methylcyclopropyl)amino]furo[2,3-d]pyrimidine-5-carboxamide] was tested, and the IC50 was 10 to 100 nM.
Molecule `Cc1ccccc1CCNC(=O)c1c(C)oc2ncnc(NC3(C)CC3)c12` [Example 236, 6-Methyl-4-[(1-methylcyclopropyl)amino]-N-[2-(2-methylphenyl)ethyl]furo[2,3-d]pyrimidine-5-carboxamide] has an IC50 of 10 to 100 nM.
With `Cc1oc2ncnc(NC3(C)CC3)c2c1C(=O)N1CCc2c(ncnc2NC2CCOCC2)C1` [Example 794, 6-Methyl-N-(1-methylcyclopropyl)-5-f{4-[(oxan-4-yl)amino]-5H,6H,7H,8H-pyrido[3,4-d]pyrimidine-7-carbonyl}furo[2,3-d]pyrimidin-4-amine] the IC50 was 10 to 100 nM.
With `Cc1oc2ncnc(NC3(C)CC3)c2c1C(=O)NCc1ccccn1` [Example 76, 6-Methyl-4-[(1-methylcyclopropyl)amino]-N-(pyridin-2-ylmethyl)furo[2,3-d]pyrimidine-5-carboxamide] the IC50 was 10 to 100 nM.
`Cc1oc2ncnc(NC3(C)CC3)c2c1C(=O)NCc1ccc(N2CCOCC2)nn1` [Example 745, 6-Methyl-4-[(1-methylcyclopropyl)amino]-N-{[6-(morpholin-4-yl)pyridazin-3-yl]methyl}furo[2,3-d]pyrimidine-5-carboxamide] showed an IC50 of 10 to 100 nM.
In the case of `Cc1oc2ncnc(NC3(C)CC3)c2c1C(=O)NC1(C(F)(F)F)CC1` [Example 86, 6-Methyl-4-[(1-methylcyclopropyl)amino]-N-[1-(trifluoromethyl)cyclopropyl]furo[2,3-d]pyrimidine-5-carboxamide], the IC50 is reported as 10 to 100 nM.
With `Cc1oc2ncnc(NC3(C)CC3)c2c1C(=O)NCC1COC1` [Example 90, 6-Methyl-4-[(1-methylcyclopropyl)amino]-N-(oxetan-3-ylmethyl)furo[2,3-d]pyrimidine-5-carboxamide] the IC50 was 100 to 1000 nM.
Molecule `Cc1oc2ncnc(NC3(C)CC3)c2c1C(=O)N1CCc2nc(Cl)ccc2C1` [Example 287, 5-(2-Chloro-5,6,7,8-tetrahydro-1,6-naphthyridine-6-carbonyl)-6-methyl-N-(1-methylcyclopropyl)furo[2,3-d]pyrimidin-4-amine] has an IC50 of 10 to 100 nM.
In the case of `Cc1oc2ncnc(NC3(C)CC3)c2c1C(=O)NCc1cccc(N2CCOCC2)n1` [Example 737, 6-Methyl-4-[(1-methylcyclopropyl)amino]-N-{[6-(morpholin-4-yl)pyridin-2-yl]methyl}furo[2,3-d]pyrimidine-5-carboxamide], the IC50 is reported as 10 to 100 nM.
With `Cc1oc2ncnc(NC3(C)CC3)c2c1C(=O)NC(C)c1ncc(F)cn1` (stereo in doubt) [Example 615, N-[(1R)-1-(5-Fluoropyrimidin-2-yl)ethyl]-6-methyl-4-[(1-methylcyclopropyl)amino]furo[2,3-d]pyrimidine-5-carboxamide] the IC50 was 10 to 100 nM.
In the case of `Cc1oc2ncnc(NC3(C)CC3)c2c1C(=O)Nc1ccc(N2CCOCC2)nc1` [Example 753, 6-Methyl-4-[(1-methylcyclopropyl)amino]-N-[6-(morpholin-4-yl)pyridin-3-yl]furo[2,3-d]pyrimidine-5-carboxamide], the IC50 is reported as 100 to 1000 nM.
Molecule `Cc1oc2ncnc(NC3(C)CC3)c2c1C(=O)NCC1CCCO1` (stereo not drawn) [Example 175, 6-Methyl-4-[(1-methylcyclopropyl)amino]-N-(oxolan-2-ylmethyl)furo[2,3-d]pyrimidine-5-carboxamide] has an IC50 of 10 to 100 nM.
In the case of `Cc1oc2ncnc(NC3(C)CC3)c2c1C(=O)NCc1nnn(C)n1` [Example 738, 6-Methyl-N-[(2-methyl-2H-1,2,3,4-tetrazol-5-yl)methyl]-4-[(1-methylcyclopropyl)amino]furo[2,3-d]pyrimidine-5-carboxamide], the IC50 is reported as 10 to 100 nM.
With `Cc1cnc(C2CCN(C(=O)c3c(C)oc4ncnc(NC5(C)CC5)c34)CC2)nc1C` [Example 391, 5-[4-(4,5-Dimethylpyrimidin-2-yl)piperidine-1-carbonyl]-6-methyl-N-(1-methylcyclopropyl)furo[2,3-d]pyrimidin-4-amine] the IC50 was 10 to 100 nM.
For `Cc1oc2ncnc(NC3(C)CC3)c2c1C(=O)NCc1ccnc(N2CCOCC2)c1` [Example 675, 6-Methyl-4-[(1-methylcyclopropyl)amino]-N-{[2-(morpholin-4-yl)pyridin-4-yl]methyl}furo[2,3-d]pyrimidine-5-carboxamide], the IC50 was 10 to 100 nM.
For `Cc1oc2ncnc(NC3(C)CC3)c2c1C(=O)NCc1ncco1` [Example 713, 6-Methyl-4-[(1-methylcyclopropyl)amino]-N-(1,3-oxazol-2-ylmethyl)furo[2,3-d]pyrimidine-5-carboxamide], the IC50 was 10 to 100 nM.
In the case of `Cc1ncc(CNC(=O)c2c(C)oc3ncnc(NC4(C)CC4)c23)o1` [Example 744, 6-Methyl-N-[(2-methyl-1,3-oxazol-5-yl)methyl]-4-[(1-methylcyclopropyl)amino]furo[2,3-d]pyrimidine-5-carboxamide], the IC50 is reported as 10 to 100 nM.
In the case of `Cc1oc2ncnc(NC3(C)CC3)c2c1C(=O)N1Cc2nc(C(C)C)[nH]c(=O)c2C1` [Example 682, 6-{6-Methyl-4-[(1-methylcyclopropyl)amino]furo[2,3-d]pyrimidine-5-carbonyl}-2-(propan-2-yl)-3H,4H,5H,6H,7H-pyrrolo[3,4-d]pyrimidin-4-one], the IC50 is reported as 100 to 1000 nM.
In the case of `Cc1oc2ncnc(NC3(C)CC3)c2c1C(=O)N1CCC(Oc2ccc(F)cc2)C1` (stereo not drawn) [Example 399, 5-[3-(4-Fluorophenoxy)pyrrolidine-1-carbonyl]-6-methyl-N-(1-methylcyclopropyl)furo[2,3-d]pyrimidin-4-amine], the IC50 is reported as 10 to 100 nM.
With `Cc1oc2ncnc(NC3(C)CC3)c2c1C(=O)NCC1CC1(F)F` (stereo not drawn) [Example 755, N-[(2,2-Difluorocyclopropyl)methyl]-6-methyl-4-[(1-methylcyclopropyl)amino]furo[2,3-d]pyrimidine-5-carboxamide] the IC50 was 10 to 100 nM.
With `COC(=O)c1cnc(C2CN(C(=O)c3c(C)oc4ncnc(NC5(C)CC5)c34)C2)nc1` [Example 462, Methyl 2-(1-{6-methyl-4-[(1-methylcyclopropyl)amino]furo[2,3-d]pyrimidine-5-carbonyl}azetidin-3-yl)pyrimidine-5-carboxylate] the IC50 was 100 to 1000 nM.
In the case of `CCc1nc(C2CC2)n2c1CN(C(=O)c1c(C)oc3ncnc(NC4(C)CC4)c13)CC2` [Example 29, 5-{3-Cyclopropyl-1-ethyl-5H,6H,7H,8H-imidazo[1,5-a]pyrazine-7-carbonyl}-6-methyl-N-(1-methylcyclopropyl)furo[2,3-d]pyrimidin-4-amine], the IC50 is reported as 100 to 1000 nM.
`Cc1oc2ncnc(NC3(C)CC3)c2c1C(=O)N1CCn2c(C3CC3)nc(I)c2C1` [Example 695, 5-{3-Cyclopropyl-1-iodo-5H,6H,7H,8H-imidazo[1,5-a]pyrazine-7-carbonyl}-6-methyl-N-(1-methylcyclopropyl)furo[2,3-d]pyrimidin-4-amine] gave an IC50 of 10 to 100 nM.
With `Cc1oc2ncnc(NC3(C)CC3)c2c1C(=O)NCc1csc(N2CCOCC2)n1` [Example 739, 6-Methyl-4-[(1-methylcyclopropyl)amino]-N-{[2-(morpholin-4-yl)-1,3-thiazol-4-yl]methyl}furo[2,3-d]pyrimidine-5-carboxamide] the IC50 was 10 to 100 nM.
In the case of `Cc1nnc(CNC(=O)c2c(C)oc3ncnc(NC4(C)CC4)c23)s1` [Example 468, 6-Methyl-N-[(5-methyl-1,3,4-thiadiazol-2-yl)methyl]-4-[(1-methylcyclopropyl)amino]furo[2,3-d]pyrimidine-5-carboxamide], the IC50 is reported as 10 to 100 nM.
Work on `Cc1oc2ncnc(NC3(C)CC3)c2c1C(=O)NC1(C2CC2)CC1` [Example 149, N-(1-Cyclopropylcyclopropyl)-6-methyl-4-[(1-methylcyclopropyl)amino]furo[2,3-d]pyrimidine-5-carboxamide] yielded an IC50 of 10 to 100 nM.

Source: patent US20250145633A1, “SUBSTITUTED FURANOPYRIMIDINE COMPOUNDS AS PDE1 INHIBITORS” (Dart NeuroScience, LLC, priority 2017, published 2025)
